Measurements published in PMC11574108, “4-Furanylvinylquinoline derivative as a new scaffold for the design of oxidative stress initiator and glucose transporter inhibitor drugs” (Scientific Reports, 2024).

Experiments:
Assay type in all cases: cell-based, human
U-251 [1] = test: Cell cycle assay (flow cytometry); settings: 2xIC50, 24-h treatment; control 20.44%
Procedure: (§1) The cells were seeded in 35 mm Petri dishes, 200,000 cells per dish, and incubated overnight under standard conditions at 37 °C. […] After a 24-h incubation, the experiment was carried out using a Muse™ Cell Cycle Kit (Millipore) according to the available procedure. Briefly, the cells were detached and collected in Eppendorf tubes. The samples were then washed with cold phosphate-buffered saline (PBS), centrifuged at 300 g (5 min), and fixed in ice-cold 70% ethanol. The cells were stored at -20 °C overnight. The next day, the samples were sequentially washed with cold PBS, centrifuged resuspended in 200 µL of Muse™ Cell Cycle Reagent, and incubated in the dark for 30 min at room temperature. The percentage of cells in specified cell cycle phases was estimated using a Muse™ Cell Analyzer (Millipore). The experiments were carried out three times.
(§2) When analysing the antiproliferative activity of the tested compounds, we decided to determine the molecular mechanism of action of the most promising derivative 13 in three cell lines with different statuses of p53, for which the derivative has the highest activity. In order to achieve this goal, we started by studying the changes in the cell cycle in order to determine why proliferation stops. To evaluate the effect of derivative 13 on the cell cycle progression, we used flow cytometry. After a 24-h treatment, we observed a significant inhibition in the G2/M phase in both HCT 116 cell lines (Fig. 4A).

HCT 116 p53-/- [2] = test: Cell cycle assay (flow cytometry); settings: 2xIC50, 24-h treatment; control 34.35%
Procedure: as §1, §2

HCT 116 p53+/+ [3] = test: Cell cycle assay (flow cytometry); settings: 2xIC50, 24-h treatment; control 30.81%
Procedure: as §1, §2

HCT 116 p53-/- [4] = test: Apoptosis induction assay (Annexin V/7-AAD); settings: 0.5 µM, 48 h; control nearly 6%
Procedure: (§3) The cells were seeded in 35 mm Petri dishes (200,000 per dish) and incubated at 37 °C overnight. The following day, the medium was changed for a freshly prepared 0.5 µM solution of 13. Analysis was carried out after 48 h using an FITC Annexin V Apoptosis Detection KIT with 7-AAD (Bio-Legend) according to the manufacturer’s protocol. In brief, both adherent and detached cells were collected, washed two times with cold PBS, and centrifuged at 300 g (5 min). Next, the cells were resuspended in 100 µL Annexin V Binding Buffer, 5 µL of FITC Annexin V, and 5 µL 7-AAD Viability Staining Solution. The samples were incubated in the dark for 15 min at room temperature. The percentage of live and apoptotic (sum of early and late apoptotic) cells was estimated using a Muse™ Cell Analyzer. The experiments were carried out three times.
(§4) Because derivative 13 affected the cell cycle progression, we decided to determine the type of induced cell death by focusing on the apoptosis pathway. The analysis was performed by measuring the green fluorescence of the annexin V – FITC dye conjugate using capillary flow cytometry. Positive staining is observed when the annexin V binds to the disintegrated membrane of apoptotic cells. […]

HCT 116 p53+/+ [5] = test: Apoptosis induction assay (Annexin V/7-AAD); settings: 0.5 µM, 48 h; control nearly 6%
Procedure: as §3, §4

U-251 [6] = test: Intracellular ROS level measurement (CellROX Green); settings: 1 µM, after 9 h and 24 h
Procedure: (§5) The cells (9,000 per well) were seeded in 96-well plates and treated with at freshly prepared 1 µM solution of 13 for 3, 6, 9, 12, and 24 h. The ROS levels were measured immediately according to the CellROX Green Reagent procedure. Additionally, the number of cells in each well during measurement was estimated using Hoechst 33,342 (Molecular Probes™). Briefly, after treatment the medium was removed and […] mixture of CellROX Green Reagent ([…]) and Hoechst 33,342 ([…]) was added to each well. The plates were incubated for 30 min at 37 °C in the dark, and the fluorescence of samples was then measured using a multiplate reader (Synergy 4, Bio Tek). Readings were performed at 485 nm excitation and 520 nm emission, as well as at 345 nm excitation and 485 nm emission for the CellROX Green Reagent and Hoechst 33,342, respectively. ROS levels were calculated as the percentage relative to the untreated cell levels (control). The experiments were carried out three times.
(§6) To determine the ROS level, the fluorescent CellROX Green Reagent was used, being measured by a spectroscopic multi-plate reader. […] The ROS level was several percent higher compared to the control after only 3 h. After 24 h the amount of ROS increased by as much as 50% relative to the untreated cells. Similar observations were made in the case of the HCT 116 p53^+/+ cells. However, the generation of ROS was less pronounced, especially at the first time points. Nevertheless, after 24 h, the level of ROS was about 40% higher. […] The highest (20% growth) occurred after 9 h and 24 h. […] The intracellular ROS levels are rapidly regulated by activated p53, which initially decreases and then subsequently increases them[42]. The weaker response toward ROS generation in these cells might have been caused by the fact that U-251 cells are resistant to exposure to oxidative stress. […] Additionally, cancer cells with a p53 mutation have a higher level of ROS than those with the wild type. Some p53 mutants can gain oncogenic features that are described as “gain-of-function” (GOF), among them being U-251 cells. […]

HCT 116 p53-/- [7] = test: as above; settings: 1 µM, 24 h
Procedure: as §5, §6

HCT 116 p53+/+ [8] = test: as above; settings: 1 µM, 24 h
Procedure: as §5, §6

In the case of `O=[N+]([O-])c1ccc(/C=C/c2ccnc3ccccc23)o1` [Compound 13], the “percentage of cells in S phase” value (U-251 [1]) was 35.59%, the “population of cells in G2/M phase” value (HCT 116 p53-/- [2]) was 44.95% and the “population of cells in G2/M phase” value (HCT 116 p53+/+ [3]) was 49.78%. For the same compound, the “percentage of apoptotic cells” value (HCT 116 p53-/- [4]) was 30%, the “percentage of apoptotic cells” value (HCT 116 p53+/+ [5]) was 40% and the “ROS level increase relative to untreated cells” value (U-251 [6]) was 20%. The “ROS level increase relative to untreated cells” value (HCT 116 p53-/- [7]) was 50% and the “ROS level increase relative to untreated cells” value (HCT 116 p53+/+ [8]) was “about 40%”.
